pIC50: −log10 of the molar value.

For this assay, the target named is T1, PCTAIRE1 (PCTK1/CDK16) (Homo sapiens, UniProt Q00536).
T1 construct: recombinant GST-fusion or His-tagged protein from human cDNA, expressed in Sf9 insect cells or E. coli; with CycY (cyclin Y)
As to the kind of experiment: radiometric protein kinase assay ([…]PanQinase) with GSK3([…]-27) peptide substrate. It is filed as biochemical.

T1 sequence (Q00536 whole entry, the tested form may be a part): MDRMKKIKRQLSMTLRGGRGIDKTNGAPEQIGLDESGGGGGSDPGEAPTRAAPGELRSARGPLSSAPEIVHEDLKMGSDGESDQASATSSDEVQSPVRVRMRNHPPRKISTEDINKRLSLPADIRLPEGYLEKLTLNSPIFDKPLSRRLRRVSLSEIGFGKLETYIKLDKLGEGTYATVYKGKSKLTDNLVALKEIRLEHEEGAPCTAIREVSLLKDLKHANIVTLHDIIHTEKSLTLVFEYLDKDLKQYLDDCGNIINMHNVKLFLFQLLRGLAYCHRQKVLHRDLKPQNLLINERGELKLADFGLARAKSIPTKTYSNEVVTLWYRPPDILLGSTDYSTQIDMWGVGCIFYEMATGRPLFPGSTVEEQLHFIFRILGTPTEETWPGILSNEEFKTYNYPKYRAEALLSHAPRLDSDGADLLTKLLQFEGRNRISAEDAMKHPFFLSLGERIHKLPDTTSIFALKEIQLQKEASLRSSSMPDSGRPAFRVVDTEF
T1 sequence (Q8ND76 2-341 partner): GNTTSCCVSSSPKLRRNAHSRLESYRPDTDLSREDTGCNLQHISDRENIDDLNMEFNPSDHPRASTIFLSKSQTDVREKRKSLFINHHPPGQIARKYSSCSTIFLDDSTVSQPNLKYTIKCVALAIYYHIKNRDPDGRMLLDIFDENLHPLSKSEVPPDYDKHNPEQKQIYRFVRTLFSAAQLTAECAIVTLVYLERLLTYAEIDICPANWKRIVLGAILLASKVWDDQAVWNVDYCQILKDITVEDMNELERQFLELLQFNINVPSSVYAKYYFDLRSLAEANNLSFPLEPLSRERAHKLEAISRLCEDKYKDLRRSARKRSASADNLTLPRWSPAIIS

As a reminder, the pIC50 is −log10 of the IC50, conventionally taken in molar units. The low end stands for a high IC50, the high end for a low IC50. As for `O=C1Nc2ccccc2/C1=C1/Nc2ccccc2/C1=N\OCCC(O)CO` (stereo not shown) [indirubin E804], the pIC50 is 7.28.
